The values that follow come from patent publication US11186587B2, “Compound as ACC inhibitor and use thereof” (NANJING SANHOME PHARMACEUTICAL CO., LTD., priority 2017, dated 2021).

For orientation: pIC50 means the negative decadic logarithm of the IC50, by convention in mol/L.

pIC50: −log10 of the molar value. Read-outs that look alike come from different tables or passages of the source.

For data set [1], the system named is Col1A1 gene expression in TGF-β1-induced LX-2 cells. Nature of the data set: Inhibition of human hepatic stellate cells LX-2 activation in vitro (Col1A1 gene expression, real-time PCR). The following applies: TGFβ1 10 ng/mL, 24 h drug treatment, compound concentration of the tabulated value not stated (30, 10, 3 μM prepared). The class given is cell-based. The method, then: The compounds of the present disclosure prepared in the above examples and the control compound were respectively formulated into 60 mM with DMSO for use.
DMSO stock solution of the compounds of the examples of the present disclosure and the control compound were sequentially diluted with culture medium to 30 μM, 10 μM, and 3 μM. TGF-β1 was dissolved to […] with 10 mM citric acid buffer in the kit (PeproTech) according to the instructions, ready for use.
LX-2 cells were inoculated into a 6-well culture plate at a density of 2×10^5 cells/mL after cell passage. Each well contained 2 mL DMEM with 10% FBS. The cells were cultured at 37° C. in a 5% CO2 incubator, which was recorded as Day 1. After 24 h (Day 2), the cell confluence reached 70-80%, the old culture medium was discarded, and the serum-free DMEM was used to treat the cells as low serum starvation. The old culture medium was discarded at Day 3, and the culture medium or the culture medium containing different concentrations of the drug was added for continuing culture. There were control group (serum-free DMEM culture medium), TGFβ1 group, TGFβ1+ compound group. The TGFβ1 working concentration was 10 ng/mL. 24 h after the drug treatment (Day 4), the cell medium was discarded and the cells were washed once with precooled 1×PBS and then subjected to total RNA extraction.
2.3.1 Sample pretreatment: 1 mL of TransZOL Up reagent was added to each well of the 6-well plate, and the well plate was placed horizontally for a while to let the lysis buffer evenly spread on the cell surface and lyse the cells. The cells were blown with a pipette to make the cells completely detached. The lysate was transferred to a 2 mL RNase free centrifuge tube and repeatedly blown and sucked until no significant pieces in the lysate.
The extracted RNA was diluted to a concentration of 0.1 μg-0.5 μg (Total RNA ≤1 μg) based on the same mass. The total RNA in the reverse transcription system of each sample in the experiment was about 500 ng.
Two replicates were set for each sample, and the relative expression of the target gene was calculated by the program in the PCR machine.
The threshold of the Real Time PCR result was automatically set by the Real Time PCR detector system. The relative expression of the Col1A1 gene was calculated as follows. ΔCt (Col1A1 in drug treatment group)=Avg. Ct (Col1A1 in drug treatment group)−Avg. Ct (GAPDH in drug treatment group) ΔCt (Col1A1 in TGF group)=Avg. Ct (Col1A1 in TGF group)−Avg. Ct (GAPDH in TGF group) ΔCt (Col1A1 in Control group)=Avg. Ct (Col1A1 in Control group)−Avg. Ct (GAPDH in Control group) ΔΔCt=Average value of ΔCt (Col1A1 in TGF group/drug treatment group)−ΔCt (Col1A1 in Control group)
Formula for calculating the relative expression of Col1A1 gene: RQ=^2−ΔΔCt
Relative quantification results were obtained by automatically analysis of ABI 7500 real-time quantitative PCR machine.
(In general: Quantitative PCR measures a nucleic acid by following its amplification.)

Another data set addresses ACC2 (Homo sapiens (Human), UniProt O00763). Kind of data set: ACC2 enzyme activity assay (ADP-Glo). Conditions: ACC2 enzyme 1.1 nM working solution, room temperature. The class given is biochemical. As to the method: (§1) Compound preparation: the compounds of the present disclosure prepared in the above examples and the control compound were respectively formulated into 10 mM with DMSO for use.
(§2) Preparation of 1× reaction buffer (pH=7.4): HEPES stock solutions (1 M), MgCl2 (1 M), BRIJ-35 (10%), potassium citrate buffer (1 M), BSA (10 mg/mL) and DTT (500 mM) were formulated to enzyme reaction buffer containing HEPES (50 mM), MgCl2 (2 mM), BRIJ-35 (0.01%), potassium citrate buffer (2 mM), BSA (50 Gg/mL) and DTT (2 mM).
The mixture was incubated at room temperature for 15 min.
(§3) Negative control group: menstruum containing 5% DMSO; positive control group: menstruum containing 100 nM ND-630. The average values of each concentration and the positive and negative controls were calculated, and the standard deviation was calculated. […] The inhibition rate data was fitted by nonlinear regression equation to calculate IC50 of each compound. The nonlinear regression equation was Y=lowest value+(highest value−lowest value)/(1+10^((Log IC50−X)×HillSlope)), among which X is logarithm of the compound concentration and Y is inhibition percent (%).
Background: In ADP-Glo the light output rises with the ADP produced.

A short description of data set [2]: Evaluation of compound distribution in rat liver. The following applies: male SD rats, single oral 3 mg/kg, 0.25 h after administration; for Kp at 0.25 h: liver/plasma, read-out: Liver/plasma distribution ratio. The class given is in vivo. As to the method: An acclimation period of 2-3 days was given before the experiments. The rats were fasted for 8-12 h before administration, supplied with water 2 h after administration and foods 4 h after administration.
6 mg of the test compound (based on free base) was weighed and added to 20 mL of ethanol-PEG400-saline (10:30:60). The mixture was vortexed for 2 min, and sonicated for 3 min, and then used to prepare a solution of test sample solution with a concentration of 0.3 mg/mL for oral administration. 100 μL of the test sample solution was volumed to 10 ng/mL with methanol, and a control sample of the same concentration was prepared. The concentrations of the test sample and control sample were detected by HPLC, and the accuracy was calculated.
SD rats were given a single oral administration of 3 mg/kg of test compound at a dose of 10 mL/kg. The rats were bled in femoral artery and ruptured in neck 0.25 h after administration. The liver and blood samples (anticoagulation with heparin sodium) were collected immediately, and placed on ice.
The homogenate was centrifuged (centrifugation conditions: 8000 rpm/min, 5 min, 4° C.). The supernatant was transferred and subjected to cryopreservation. The supernatant was thawed and centrifuged before injection, and the supernatant was collected and subjected to LC-MS/MS for analyzing the content of the compound in the supernatant sample.
The collected whole blood sample was placed on ice and centrifuged within 30 min (centrifugation conditions: 8000 rpm/min, 5 min, 4° C.). 100 μL of the upper layer of plasma was transferred, and precipitated with 300 μL of methanol. The mixture was shaken and centrifuged, and diluted with mobile phase. The supernatant was collected and subjected to LC-MS/MS for analyzing the content of the compound in the supernatant sample.

In the next data set the target is ACC1 (Homo sapiens (Human), UniProt Q13085). Nature of the data set: ACC1 enzyme activity assay (ADP-Glo). The class given is biochemical. Conditions: ACC1 enzyme 2 nM working solution, room temperature. The method, then:
as §1, §2
4.5 μL of 2.2×ACC1 enzyme (2 nM) working solution was added to a 384-well plate; and then 0.5 μL of different concentrations of compound were added. The mixture was incubated at room temperature for 15 min.
as §3

[3] abbreviates: liver, read-out: Concentration in Liver.
The mark [4] stands for this setting: plasma, read-out: Concentration in Plasma.

ACC2, sequence (O00763 whole entry): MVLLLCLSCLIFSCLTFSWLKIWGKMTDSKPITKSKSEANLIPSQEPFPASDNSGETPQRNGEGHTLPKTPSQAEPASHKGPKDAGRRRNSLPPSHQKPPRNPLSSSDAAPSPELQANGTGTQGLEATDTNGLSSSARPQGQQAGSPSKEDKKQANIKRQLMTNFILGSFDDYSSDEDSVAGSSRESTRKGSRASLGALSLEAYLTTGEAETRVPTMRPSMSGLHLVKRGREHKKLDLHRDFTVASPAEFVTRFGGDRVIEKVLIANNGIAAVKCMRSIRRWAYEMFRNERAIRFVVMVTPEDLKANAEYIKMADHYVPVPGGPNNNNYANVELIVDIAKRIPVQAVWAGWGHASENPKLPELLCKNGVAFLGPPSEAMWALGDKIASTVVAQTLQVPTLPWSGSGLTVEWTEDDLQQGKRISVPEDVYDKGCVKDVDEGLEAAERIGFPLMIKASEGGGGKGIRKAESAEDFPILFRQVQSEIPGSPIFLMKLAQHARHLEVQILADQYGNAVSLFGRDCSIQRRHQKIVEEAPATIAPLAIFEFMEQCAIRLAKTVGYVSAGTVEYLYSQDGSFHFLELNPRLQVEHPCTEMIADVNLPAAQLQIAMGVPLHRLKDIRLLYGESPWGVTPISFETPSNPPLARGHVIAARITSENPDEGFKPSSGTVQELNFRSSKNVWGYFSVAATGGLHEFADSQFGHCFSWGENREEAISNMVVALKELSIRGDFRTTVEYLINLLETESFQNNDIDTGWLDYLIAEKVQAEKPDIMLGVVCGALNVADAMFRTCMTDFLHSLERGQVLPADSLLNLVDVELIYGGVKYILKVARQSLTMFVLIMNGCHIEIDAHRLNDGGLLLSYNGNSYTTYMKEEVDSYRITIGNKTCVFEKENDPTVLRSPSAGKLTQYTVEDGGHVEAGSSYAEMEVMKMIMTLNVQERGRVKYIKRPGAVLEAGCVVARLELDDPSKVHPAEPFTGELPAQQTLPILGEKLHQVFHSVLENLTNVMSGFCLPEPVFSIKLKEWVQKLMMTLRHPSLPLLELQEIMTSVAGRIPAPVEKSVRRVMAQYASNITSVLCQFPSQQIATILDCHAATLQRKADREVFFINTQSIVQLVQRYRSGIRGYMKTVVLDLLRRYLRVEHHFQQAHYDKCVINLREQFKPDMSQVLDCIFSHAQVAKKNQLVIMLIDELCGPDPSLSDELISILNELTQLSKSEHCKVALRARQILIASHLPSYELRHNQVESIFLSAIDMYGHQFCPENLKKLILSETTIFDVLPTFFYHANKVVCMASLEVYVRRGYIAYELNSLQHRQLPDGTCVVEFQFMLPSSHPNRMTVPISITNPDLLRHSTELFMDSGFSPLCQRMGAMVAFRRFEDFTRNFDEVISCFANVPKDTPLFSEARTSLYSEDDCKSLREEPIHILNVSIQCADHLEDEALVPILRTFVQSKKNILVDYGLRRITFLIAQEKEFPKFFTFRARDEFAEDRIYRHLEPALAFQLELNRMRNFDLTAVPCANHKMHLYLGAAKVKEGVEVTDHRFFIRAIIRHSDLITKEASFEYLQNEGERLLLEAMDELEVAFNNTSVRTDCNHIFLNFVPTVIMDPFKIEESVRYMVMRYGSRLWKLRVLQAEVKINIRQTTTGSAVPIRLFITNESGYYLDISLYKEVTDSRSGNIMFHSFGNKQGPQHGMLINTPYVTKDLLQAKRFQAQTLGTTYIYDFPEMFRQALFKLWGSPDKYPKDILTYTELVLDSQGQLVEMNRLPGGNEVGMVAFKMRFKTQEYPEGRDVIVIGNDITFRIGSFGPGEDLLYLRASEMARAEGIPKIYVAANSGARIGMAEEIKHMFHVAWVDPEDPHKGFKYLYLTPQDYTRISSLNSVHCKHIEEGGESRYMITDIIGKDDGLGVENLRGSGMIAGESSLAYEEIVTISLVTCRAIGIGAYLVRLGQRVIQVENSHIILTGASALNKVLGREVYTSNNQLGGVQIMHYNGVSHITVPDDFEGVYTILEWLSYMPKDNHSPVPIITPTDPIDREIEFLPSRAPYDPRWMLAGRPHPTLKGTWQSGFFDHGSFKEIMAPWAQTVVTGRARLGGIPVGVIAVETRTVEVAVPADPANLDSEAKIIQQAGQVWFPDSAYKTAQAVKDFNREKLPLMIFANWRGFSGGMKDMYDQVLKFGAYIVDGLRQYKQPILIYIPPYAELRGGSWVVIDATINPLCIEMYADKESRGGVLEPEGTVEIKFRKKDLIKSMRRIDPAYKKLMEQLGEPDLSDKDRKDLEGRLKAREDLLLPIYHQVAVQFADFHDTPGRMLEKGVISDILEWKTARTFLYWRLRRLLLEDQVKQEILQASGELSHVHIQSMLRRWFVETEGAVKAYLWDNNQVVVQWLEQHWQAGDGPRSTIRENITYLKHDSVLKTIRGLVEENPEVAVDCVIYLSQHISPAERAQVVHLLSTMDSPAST

With `COc1ccccc1[C@H](Cn1c(=O)n(-c2ccc(C(=O)O)cc2)c(=O)c2c(C)c(-c3ncco3)sc21)OC1CCOCC1` [Example 24a, (R)-4-(1-(2-(2-methoxyphenyl)-2-((tetrahydro-2H-pyran-4-yl)oxy)ethyl)-5-methyl-6-(oxazol-2-yl)-2,4-dioxo-1,4-dihydrothieno[2,3-d]pyrimidin-3(2H)-yl)benzoic Acid], the “Inhibition rate (%) of relative expression of the Col1A1 gene” value in data set [1] was 24.50%.
On to `COc1ccccc1C(Cn1c(=O)n(-c2cccc(C(=O)O)c2)c(=O)c2c(C)c(-c3ncco3)sc21)OC1CCOCC1` (centres unmarked) [Example 25, 3-(1-(2-(2-methoxyphenyl)-2-((tetrahydro-2H-pyran-4-yl)oxy)ethyl)-5-methyl-6-(oxazol-2-yl)-2,4-dioxo-1,4-dihydrothieno[2,3-d]pyrimidin-3(2H)-yl)benzoic Acid], for which the negative-log IC50 (pIC50) against ACC2 is 8.12; at ACC1 it was 8.80. Besides, in data set [1], the “Inhibition rate (%) of relative expression of the Col1A1 gene” value is recorded as 62.94%. Also, the concentration at 0.25 h in data set [2] (setting [3]) is 3200 ng/g; in data set [2] (setting [4]), 21.2 ng/mL. Also, in data set [2], the Kp at 0.25 h is 151.
In the case of `COc1ccccc1C(Cn1c(=O)n(-c2ccc(C(=O)O)cc2)c(=O)c2c(C)c(-c3ncco3)sc21)OC1CCOCC1` (centres unmarked) [Example 24, 4-(1-(2-(2-methoxyphenyl)-2-((tetrahydro-2H-pyran-4-yl)oxy)ethyl)-5-methyl-6-(oxazol-2-yl)-2,4-dioxo-1,4-dihydrothieno[2,3-d]pyrimidin-3(2H)-yl)benzoic Acid], the negative logarithm of the IC50 (pIC50) was 8.29 on ACC2 and 8.51 against ACC1. In addition, the results for the concentration at 0.25 h in data set [2] (setting [3]) and in data set [2] (setting [4]) were 3170 ng/g and 48.5 ng/mL, respectively. Also, in data set [2], the Kp at 0.25 h came to 65.3.
As to `COc1ccccc1C(Cn1c(=O)n(C2CN(S(C)(=O)=O)C2)c(=O)c2c(C)c(-c3ncco3)sc21)OC1CCOCC1` (centres unmarked) [Example 9, 1-(2-(2-methoxyphenyl)-2-((tetrahydro-2H-pyran-4-yl)oxy)ethyl)-5-methyl-3-(1-(methylsulfonyl)azetidin-3-yl)-6-(oxazol-2-yl)thieno[2,3-d]pyrimidine-2,4(1H,3H)-dione], the pIC50 against ACC2 is 8.10; on ACC1 it was 8.69.
For the compound `COc1ccccc1C(Cn1c(=O)n(C2CC(C(=O)O)C2)c(=O)c2c(C)c(-c3ncco3)sc21)OC1CCOCC1` (centres unmarked) [Example 1, 3-(1-(2-(2-methoxyphenyl)-2-((tetrahydro-2H-pyran-4-yl)oxy)ethyl)-5-methyl-6-(oxazol-2-yl)-2,4-dioxo-1,4-dihydrothieno[2,3-d]pyrimidin-3(2H)-yl)cyclobutane-1-carboxylic Acid], the figures for the negative logarithm of the IC50 (pIC50) on ACC2 and on ACC1 were 8.29 and 9.16, respectively. Further, the concentration at 0.25 h in data set [2] (setting [3]) came out at 4180 ng/g; in data set [2] (setting [4]), 29.1 ng/mL. Also, the Kp at 0.25 h in data set [2] turned out to be 144.
For `COc1ccccc1C(Cn1c(=O)n(C2CN(C(=O)c3ncc[nH]3)C2)c(=O)c2c(C)c(-c3ncco3)sc21)OC1CCOCC1` (centres unmarked) [Example 14], the pIC50 against ACC2 was 8.11; on ACC1 it was 8.77.
In the case of `COc1ccccc1[C@H](Cn1c(=O)n(-c2cccc(C3(C(=O)O)CC3)c2)c(=O)c2c(C)c(-c3ncco3)sc21)OC1CCOCC1` [Example 56], the “Inhibition rate (%) of relative expression of the Col1A1 gene” value in data set [1] came out at 105.01%.
As for `COc1ccccc1C(Cn1c(=O)n(C(C)(C)C(=O)O)c(=O)c2c(C)c(-c3ncco3)sc21)OC1CCN(C(C)=O)CC1` (centres unmarked) [Example 20, 2-(1-(2-((1-acetylpiperidin-4-yl)oxy)-2-(2-methoxyphenyl)ethyl)-5-methyl-6-(oxazol-2-yl)-2,4-dioxo-1,4-dihydrothieno[2,3-d]pyrimidin-3(2H)-yl)-2-methylpropionic Acid], the pIC50 was 8.10 against ACC2 and 9.04 against ACC1.
As to `COc1ccccc1C(Cn1c(=O)n(C2CN(C(=O)N3CCOCC3)C2)c(=O)c2c(C)c(-c3ncco3)sc21)OC1CCOCC1` (centres unmarked) [Example 12, 1-(2-(2-methoxyphenyl)-2-((tetrahydro-2H-pyran-4-yl)oxy)ethyl)-5-methyl-3-(1-(morpholine-4-formyl)azetidin-3-yl)-6-(oxazol-2-yl)thieno[2,3-d]pyrimidine-2,4(1H,3H)-dione], the negative logarithm of the IC50 (pIC50) was 8.09 against ACC2 and 8.91 against ACC1.
Consider `COc1ccccc1C(Cn1c(=O)n(C2CN(C(C)=O)C2)c(=O)c2c(C)c(-c3ncco3)sc21)OC1CCOCC1` (centres unmarked) [Example 7], for which the pIC50 was 7.91 against ACC2 and 8.65 against ACC1. For the same compound, the concentration at 0.25 h turned out to be 1460 ng/g in data set [2] (setting [3]) and 19.3 ng/mL in data set [2] (setting [4]). For the same compound, in data set [2], the Kp at 0.25 h amounted to 75.5.
As for `CCS(=O)(=O)N1CC(n2c(=O)c3c(C)c(-c4ncco4)sc3n(CC(OC3CCOCC3)c3ccccc3OC)c2=O)C1` (centres unmarked) [Example 10, 3-(1-(ethylsulfonyl)azetidin-3-yl)-1-(2-(2-methoxyphenyl)-2-((tetrahydro-2H-pyran-4-yl)oxy)ethyl)-5-methyl-6-(oxazol-2-yl)thieno[2,3-d]pyrimidine-2,4(1H, 3H)-dione], the pIC50 was 8.16 against ACC2 and 8.87 on ACC1.
In the case of `COc1ccccc1C(Cn1c(=O)n(C2CNC2)c(=O)c2c(C)c(-c3ncco3)sc21)OC1CCOCC1` (centres unmarked) [Example 6, 3-(azetidin-3-yl)-1-(2-(2-methoxyphenyl)-2-((tetrahydro-2H-pyran-4-yl)oxy)ethyl)-5-methyl-6-(oxazol-2-yl)thieno[2,3-d]pyrimidine-2,4(1H,3H)-dione], the figures for the pIC50 against ACC2 and against ACC1 were 8.02 and 8.55, respectively.
